Test system in the first data set: not given
Test: not given
Conditions: literature report; cited from earlier work.
`COc1ccc(Cc2nn3c([C@@H](CCCc4ccccc4)[C@@H](C)O)nc(C)c3c(=O)[nH]2)cc1OC` [Bay 60-7550]: the brain penetration result is reported as “limited”.

Another data set relates to other PDE isoforms.
Test: not given
As to conditions: literature report; cited from earlier work.
With `COc1ccc(Cc2nn3c([C@@H](CCCc4ccccc4)[C@@H](C)O)nc(C)c3c(=O)[nH]2)cc1OC` [Bay 60-7550], the “potency at other PDE isoforms” value is “significant potency”.

Another data set deals with Rhesus PDE2A3 (Macaca mulatta, UniProt B3VTJ2). Description: PDE2 fluorescence polarization (IMAP FP) inhibition assay, rhesus enzyme. Conditions: FAM-cAMP 50 nM substrate, cGMP 1 uM activator. Type of data set: biochemical, rhesus macaque.
Sequence of Rhesus PDE2A3 (B3VTJ2 1-941): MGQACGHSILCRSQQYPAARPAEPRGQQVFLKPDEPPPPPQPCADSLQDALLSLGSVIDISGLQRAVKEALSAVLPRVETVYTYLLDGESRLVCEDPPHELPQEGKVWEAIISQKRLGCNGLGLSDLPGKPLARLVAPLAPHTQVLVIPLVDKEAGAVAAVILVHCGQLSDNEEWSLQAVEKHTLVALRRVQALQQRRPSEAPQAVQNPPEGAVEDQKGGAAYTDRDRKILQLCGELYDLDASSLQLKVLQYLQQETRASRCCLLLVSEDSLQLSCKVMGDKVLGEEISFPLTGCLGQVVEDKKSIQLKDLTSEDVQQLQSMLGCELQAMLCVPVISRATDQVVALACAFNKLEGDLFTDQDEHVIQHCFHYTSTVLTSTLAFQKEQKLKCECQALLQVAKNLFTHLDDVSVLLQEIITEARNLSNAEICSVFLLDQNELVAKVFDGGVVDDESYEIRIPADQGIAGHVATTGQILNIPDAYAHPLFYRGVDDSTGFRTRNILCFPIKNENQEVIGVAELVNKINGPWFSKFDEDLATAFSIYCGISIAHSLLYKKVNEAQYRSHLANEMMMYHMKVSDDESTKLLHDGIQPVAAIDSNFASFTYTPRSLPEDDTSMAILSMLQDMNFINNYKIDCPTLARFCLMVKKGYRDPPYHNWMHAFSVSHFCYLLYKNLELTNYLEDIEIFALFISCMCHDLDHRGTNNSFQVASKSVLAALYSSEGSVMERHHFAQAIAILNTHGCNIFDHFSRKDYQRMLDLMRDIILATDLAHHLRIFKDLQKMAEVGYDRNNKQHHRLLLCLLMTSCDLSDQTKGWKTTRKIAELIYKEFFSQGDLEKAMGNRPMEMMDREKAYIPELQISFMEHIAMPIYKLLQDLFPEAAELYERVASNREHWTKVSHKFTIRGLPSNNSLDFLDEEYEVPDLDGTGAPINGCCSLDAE
In the case of `Cc1nn2c([C@@H](C)c3ccc(C(F)(F)F)cc3)nc(C)c2c(=O)[nH]1` (single isomer, unassigned) [Example 26], the affinity corresponds to a Ki of 0.779 µM.
Take `Cc1nn2c([C@@H](C)c3ccc(C(F)(F)F)cc3)nc(C)c2c(=O)[nH]1` (single isomer, unassigned) [Example 27]: the affinity, expressed as Ki, was 0.021 µM.

The target of another data set is human PDE2A1 (Homo sapiens (Human), UniProt O00408). Description: PDE selectivity panel IMAP FP assay, human PDE2. Type of data set: biochemical. Conditions: FAM cAMP 50 nM containing 1000 nM cGMP. As to the method: Selectivity for PDE2, as compared to other PDE families, was assessed using the IMAP® technology. Human PDE10A2 enzyme was prepared from cytosolic fractions of transiently transfected HEK cells. […] The enzyme and the substrate were then added to the assay plates in two consecutive additions of 10 μL and then shaken to mix. The reaction was allowed to proceed at room temperature for 60 minutes. […] The enzymatic reaction was stopped by addition of 60 μL of the binding solution to each well of the assay plate. The plates were sealed and shaken for 10 seconds. The plates were incubated at room temperature for one hour, then the parallel and perpendicular fluorescence was measured using a Tecan Genios Pro plate reader (Tecan, Switzerland). […] The intrinsic PDE2 inhibitory activity of a compound which may be used in accordance with the present invention may be determined by these assays. […] Additional data is provided in the following Examples.
Sequence of human PDE2A1 (O00408 other isoform, or with tags, fused parts or gaps): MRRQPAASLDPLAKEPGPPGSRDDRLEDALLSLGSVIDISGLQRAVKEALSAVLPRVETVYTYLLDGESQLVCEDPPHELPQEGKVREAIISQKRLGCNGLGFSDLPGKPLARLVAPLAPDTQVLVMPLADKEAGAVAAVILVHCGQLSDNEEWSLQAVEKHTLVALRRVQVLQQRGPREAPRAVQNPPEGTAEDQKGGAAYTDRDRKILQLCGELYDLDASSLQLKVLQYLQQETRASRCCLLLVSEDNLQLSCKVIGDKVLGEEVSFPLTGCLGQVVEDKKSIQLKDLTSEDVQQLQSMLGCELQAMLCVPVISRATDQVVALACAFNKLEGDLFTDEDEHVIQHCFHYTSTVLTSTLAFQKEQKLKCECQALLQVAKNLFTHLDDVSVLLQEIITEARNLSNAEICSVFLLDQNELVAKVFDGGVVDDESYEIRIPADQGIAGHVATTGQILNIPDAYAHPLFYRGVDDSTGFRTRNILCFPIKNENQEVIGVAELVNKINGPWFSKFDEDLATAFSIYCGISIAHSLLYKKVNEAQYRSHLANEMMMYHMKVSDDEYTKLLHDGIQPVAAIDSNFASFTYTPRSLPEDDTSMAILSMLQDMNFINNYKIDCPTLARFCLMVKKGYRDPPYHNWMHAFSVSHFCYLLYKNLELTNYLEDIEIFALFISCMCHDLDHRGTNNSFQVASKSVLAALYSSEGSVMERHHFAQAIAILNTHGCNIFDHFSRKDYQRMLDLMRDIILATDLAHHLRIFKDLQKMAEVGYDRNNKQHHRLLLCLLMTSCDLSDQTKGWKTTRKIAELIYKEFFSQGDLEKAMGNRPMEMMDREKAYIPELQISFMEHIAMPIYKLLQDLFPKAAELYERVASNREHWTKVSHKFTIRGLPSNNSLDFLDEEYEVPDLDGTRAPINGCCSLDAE
In the case of `Cc1nc2c(C(C)c3cccc(C(F)(F)F)c3F)nn(CCO)c2c(=O)[nH]1` (single isomer, unassigned) [Example 9, (R)- or (S)-3-(1-(2-Fluoro-3-(trifluoromethyl)phenyl)ethyl)-1-(2-hydroxyethyl)-5-methyl-1,6-dihydro-7H-pyrazolo[4,3-d]pyrimidin-7-one], the Ki (usually the dissociation constant of the complex between target and ligand, obtained from inhibition or displacement) turned out to be 2.8 µM.
For `Cc1nc2c(C(C)c3cccc(C(F)(F)F)c3F)nn(CCO)c2c(=O)[nH]1` (single isomer, unassigned) [Example 10, (S)- or (R)-3-(1-(2-Fluoro-3-(trifluoromethyl)phenyl)ethyl)-1-(2-hydroxyethyl)-5-methyl-1,6-dihydro-7H-pyrazolo[4,3-d]pyrimidin-7-one], affinity was put at a Ki of 0.206 µM.
`Cc1nc2c([C@@H](C)c3ccc(C(F)(F)F)cc3)nn([C@H](C)CO)c2c(=O)[nH]1` (single isomer, unassigned) [Example 21, 1-((R)-1-Hydroxypropan-2-yl)-5-methyl-3-((S)-1-(4-(trifluoromethyl)phenyl)ethyl)-1,6-dihydro-7H-pyrazolo[4,3-d]pyrimidin-7-one or 1-((R)-1-Hydroxypropan-2-yl)-5-methyl-3-((R)-1-(4-(trifluoromethyl)phenyl)ethyl)-1,6-dihydro-7H-pyrazolo[4,3-d]pyrimidin-7-one] came in with a Ki of 0.239 µM.
Same read-out and setting: next, `Cc1nc2c([C@@H](C)c3ccc(C(F)(F)F)cc3)nn([C@H](C)CO)c2c(=O)[nH]1` (single isomer, unassigned) [Example 22, 1-((R)-1-Hydroxypropan-2-yl)-5-methyl-3-((S)-1-(4-(trifluoromethyl)phenyl)ethyl)-1,6-dihydro-7H-pyrazolo[4,3-d]pyrimidin-7-one or 1-((R)-1-Hydroxypropan-2-yl)-5-methyl-3-((R)-1-(4-(trifluoromethyl)phenyl)ethyl)-1,6-dihydro-7H-pyrazolo[4,3-d]pyrimidin-7-one]: 0.0156 µM; `Cc1nc2c([C@@H](C)c3ccc(C(F)(F)F)cc3)nn([C@@H](C)CO)c2c(=O)[nH]1` (single isomer, unassigned) [Example 23, 1-((S)-1-Hydroxypropan-2-yl)-5-methyl-3-((S)-1-(4-(trifluoromethyl)phenyl)ethyl)-1,6-dihydro-7H-pyrazolo[4,3-d]pyrimidin-7-one or 1-((S)-1-Hydroxypropan-2-yl)-5-methyl-3-((R)-1-(4-(trifluoromethyl)phenyl)ethyl)-1,6-dihydro-7H-pyrazolo[4,3-d]pyrimidin-7-one]: 0.142 µM; `Cc1nn2c([C@@H](C)c3ccc(C(F)(F)F)cc3)nc(C)c2c(=O)[nH]1` (single isomer, unassigned) [Example 27]: 0.0172 µM.
The compound `Cc1nn2c([C@@H](C)c3ccc(C(F)(F)F)cc3)nc(CO)c2c(=O)[nH]1` (single isomer, unassigned) [Example 28] displayed a Ki of 0.298 µM.
Same read-out and setting: next, `Cc1nn2c([C@@H](C)c3ccc(C(F)(F)F)cc3)nc(CO)c2c(=O)[nH]1` (single isomer, unassigned) [Example 29]: 0.0012 µM; `Cc1nn2c(C(C)c3ccc(C(F)(F)F)cc3F)nc(CO)c2c(=O)[nH]1` (single isomer, unassigned) [Example 30, (R)- or (S)-7-(1-(2-fluoro-4-(trifluoromethyl)phenyl)ethyl)-5-(hydroxymethyl)-2-methylimidazo[5,1-f][1,2,4]triazin-4(3H)-one]: 0.2 µM.
For the compound `Cc1nn2c(C(C)c3ccc(C(F)(F)F)cc3F)nc(CO)c2c(=O)[nH]1` (single isomer, unassigned) [Example 31, (S)- or (R)-7-(1-(2-fluoro-4-(trifluoromethyl)phenyl)ethyl)-5-(hydroxymethyl)-2-methylimidazo[5,1-f][1,2,4]triazin-4(3H)-one], the inhibition constant Ki worked out at 0.0008 µM.
Consider `Cc1nn2c(C(C)c3ccc(OC(F)(F)F)cc3)nc(CO)c2c(=O)[nH]1` (single isomer, unassigned) [Example 32, (R)- or (S)-5-(hydroxymethyl)-2-methyl-7-(1-(4-(trifluoromethoxy)phenyl)ethyl)imidazo[5,1-f][1,2,4]triazin-4(3H)-one], for which affinity was put at a Ki of 0.0625 µM. Against the preceding compound, the Ki is about 78-fold higher.
`Cc1nn2c(C(C)c3ccc(OC(F)(F)F)cc3)nc(CO)c2c(=O)[nH]1` (single isomer, unassigned) [Example 33, (S)- or (R)-5-(hydroxymethyl)-2-methyl-7-(1-(4-(trifluoromethoxy)phenyl)ethyl)imidazo[5,1-f][1,2,4]triazin-4(3H)-one] displayed a Ki of 0.0012 µM.
`Cc1nn2c(C(C)c3ccc(C(F)(F)F)c(F)c3)nc(CO)c2c(=O)[nH]1` (single isomer, unassigned) [Example 34, (R)- or (S)-7-(1-(3-fluoro-4-(trifluoromethyl)phenyl)ethyl)-5-(hydroxymethyl)-2-methylimidazo[5,1-f][1,2,4]triazin-4(3H)-one] had a Ki of 0.216 µM. Compared with the last compound, the Ki is about 180-fold higher.
Still for that read-out and setting: next, `Cc1nn2c(C(C)c3ccc(C(F)(F)F)c(F)c3)nc(CO)c2c(=O)[nH]1` (single isomer, unassigned) [Example 35, (S)- or (R)-7-(1-(3-fluoro-4-(trifluoromethyl)phenyl)ethyl)-5-(hydroxymethyl)-2-methylimidazo[5,1-f][1,2,4]triazin-4(3H)-one]: 0.001 µM; `Cc1nn2c(C(C)c3ccc(C4(C)CC4)cc3)nc(CO)c2c(=O)[nH]1` (single isomer, unassigned) [Example 36, (R)- or (S)-5-(hydroxymethyl)-2-methyl-7-(1-(4-(1-methylcyclopropyl)phenyl)ethyl)imidazo[5,1-f][1,2,4]triazin-4(3H)-one]: 0.109 µM.
As to `Cc1nn2c(C(C)c3ccc(C4(C)CC4)cc3)nc(CO)c2c(=O)[nH]1` (single isomer, unassigned) [Example 37, (S)- or (R)-5-(hydroxymethyl)-2-methyl-7-(1-(4-(1-methylcyclopropyl)phenyl)ethyl)imidazo[5,1-f][1,2,4]triazin-4(3H)-one], affinity was put at a Ki of 0.0004 µM.
`Cc1nn2c([C@@H](C)c3ccc(C(F)(F)F)cc3)nc(CCO)c2c(=O)[nH]1` (single isomer, unassigned) [Example 39] had a Ki of 0.0903 µM. Against the preceding compound, the Ki is about 230-fold higher.
`Cc1nn2c(C(C)c3ccc(C(F)(F)F)cc3)nc(CC#N)c2c(=O)[nH]1` (stereo not shown) [Example 38, 2-(2-methyl-4-oxo-7-(1-(4-(trifluoromethyl)phenyl)ethyl)-3,4-dihydroimidazo-[5,1-f][1,2,4]triazin-5-yl)acetonitrile] came in with a Ki of 0.0061 µM.
